The values below come from patent publication US5734081A, “Arylthio compounds” (Warner-Lambert Company, priority 1995, dated 1998).

The target in experiment [1] is T1, HIV-1 Nucleocapsid Protein (NCp7) (Human immunodeficiency virus type 1 group M subtype B, UniProt P12493).
T1 construct: The NCp7 protein containing 2 Zn-fingers and 2 Zn ions is incubated with drug
The experiment in a line: Zinc extrusion assay (TSQ fluorescence) from the zinc fingers of HIV-1 nucleocapsid protein (NCp7). The class given is biochemical. The settings on record: 10 μM compound, 2.8 μM NCp7, pH 7.4, 26° C., 90 minutes. An outline of the steps: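 Purified NCp7 (2.8 μM, 2 Zn ions) incubated with 10 μM compound and 47 μM TSQ at pH 7.4, 26° C, 90 min; released Zn read by TSQ fluorescence (ex 355, em 400 nm) over time. % extrusion = measured fluorescence over that for full theoretical Zn release (5.6 μM) ×100.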

In experiment [2] the test system is HIV-1A17. Put plainly: Anti-HIV activity, HIV-1A17 in MT-2 cells. The class given is cell-based. Particulars: Human immunodeficiency virus 1, MT2. How it is done: (§1) The compounds of the invention were also evaluated against various other HIV strains and cell lines utilizing the assay methodology described above. The compounds were additionally evaluated against clinical isolates of HIV strains.

Experiment [3] relates to HIV-16R. The experiment in a line: Anti-HIV activity, HIV-16R in MT-4 cells. It counts as cell-based, HIV-1. Particulars: Human immunodeficiency virus 1, MT4. The protocol:
as §1

As for `CC(=O)Nc1ccc(SSc2ccc(NC(C)=O)cc2C(N)=O)c(C(N)=O)c1` [Example 9, 2,2'-Dithiobis(5-acetylamino)benzamide], the “% Zinc Extrusion Relative to Control” value in experiment [1] was 77%.

On to `NS(=O)(=O)c1ccc(NC(=O)c2ccccc2SSc2ccccc2C(=O)Nc2ccc(S(N)(=O)=O)cc2)cc1` [Example 1], for which the “% Zinc Extrusion Relative to Control” value in experiment [1] is recorded as 20%. The results for the 50% effective concentration (EC50) in experiment [2] and in experiment [3] were 0.6 µM and 1.9 µM, respectively.

A word on the EC50: it is the concentration needed to bring the measured effect to its halfway point.
